From patent US7368578B2, “Five-membered heterocyclic compounds” (Takeda Pharmaceutical Company Limited, priority 2002, dated 2008)

Target: T1, human PPARγ1 (Homo sapiens, UniProt P37231)
T1 construct: made in house; host or cells: COS-1 cells transiently transfected with pMCMVneo-hPPARγ; crude supernatant of the lysate, not purified
T1 sequence (P37231 1-477 isoform P37231-2): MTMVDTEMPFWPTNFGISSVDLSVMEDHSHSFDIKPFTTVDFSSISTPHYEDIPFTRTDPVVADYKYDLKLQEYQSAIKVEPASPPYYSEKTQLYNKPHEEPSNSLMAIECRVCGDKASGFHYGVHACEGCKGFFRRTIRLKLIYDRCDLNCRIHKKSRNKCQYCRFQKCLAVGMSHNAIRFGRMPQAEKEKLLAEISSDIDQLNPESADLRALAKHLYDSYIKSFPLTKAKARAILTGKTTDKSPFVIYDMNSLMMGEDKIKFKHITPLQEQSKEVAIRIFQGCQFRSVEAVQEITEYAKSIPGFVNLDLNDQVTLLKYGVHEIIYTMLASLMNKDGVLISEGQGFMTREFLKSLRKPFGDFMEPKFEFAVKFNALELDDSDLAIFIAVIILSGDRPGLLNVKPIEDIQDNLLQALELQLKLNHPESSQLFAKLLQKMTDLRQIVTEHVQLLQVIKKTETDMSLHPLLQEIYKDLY
Assay: Measurement of human PPARγ1 binding activity ([3H]-compound A displacement)
Details: cell extract with 1.5 μg/ml full length hPPARγ1, 20 nM [3H]-compound A, 4° C., 16 hrs
Experimental: A cell extract containing 1.5 μg/ml of full length hPPARγ1 prepared in Reference Example 7a, 20 nM [^3H]-compound A (16 Ci/mmol)(Amersham Pharmacia Biotech) and a test compound were reacted in TEGM buffer at 4° C. for 16 hrs. To the reaction mixture was added activated carbon (Sigma) coated with 140 μl of dextran (Amersham Pharmacia Biotech) and gelatin (Sigma), and the mixture was left standing at 4° C. for 10 min and centrifuged at 910×g for 10 min. After centrifugation, the radioactivity of 30 μl of supernatant was measured with Topcount (Packard). In addition, a test similar to the above was conducted for the non-use of the aforementioned test compound and for the use of 100 μM of compound A instead of the aforementioned test compound, and the radioactivity was determined.
The human PPARγ1 binding activity of the test compound was evaluated using percentages wherein the measured value of the radioactivity when 20 nM [^3H]-compound A alone was added was 100%, and the measured value of the radioactivity when 20 nM [^3H]-compound A and 100 μM of compound A were simultaneously added was 0%. Moreover, the IC50 value of the test compound was calculated based on the analysis of the compound concentration and the percentage using PRISM3.0 (Graph Pad, Inc.).
COS-1 cells were seeded in a 150 cm^2 tissue culture flask (Corning Inc.) at 5×10^6 cells, and cultured under 37° C. 5% CO2 conditions for 24 hrs. Transfection was performed using lipofectamine (GIBCO BRL). To be specific, 125 μl of lipofectamine, 100 μl of PLUS Reagent and 15 μg of hPPARγ expression plasmid (plasmid pMCMVneo-hPPARγ obtained in Reference Example 6a) were mixed with opti-MEM (GIBCO BRL) to give a transfection mixture. The transfection mixture (25 ml) was added to COS-1 cells and the cells were cultured under 37° C. 5% CO2 conditions for 3 hrs. Then 25 ml of DMEM medium (Nikken Biomedical Laboratory) containing 10% FCS treated with activated carbon (Sigma) was added to the cells and the cells were cultured under 37° C. 5% CO2 conditions. After 24 hrs., the medium was substituted with 50 ml of DMEM medium (Nikken Biomedical Laboratory) containing 5% FCS treated with activated carbon, and the cells were cultured under 37° C., 5% CO2 conditions. After 48 hrs, the transfected cells were recovered and washed with TEG buffer (10 mM Tris-HCl (pH 7.2), 50 mM EDTA, 10% glycerol). The cells were suspended in 1 ml TEGM buffer (10 mM Tris-HCl (pH 7.2), 1 mM EDTA, 10% glycerol, 7 μl/100 ml β-mercaptoethanol, 10 mM Na molybdate, 1 mM dithiothreitol, 2 tablets/100 ml Protease inhibitor Cocktail tablets (Boehringer Mannheim)) and, for cell lysis, frozen with liquid nitrogen and thawed on ice. To remove the debris of the cells, the extract was centrifuged at 228,000×g, 4° C. for 20 min. and the supernatant was preserved at −80° C. until use.

IC50 [nM]	Compound
7.4	CCc1nc(/C=C/c2cn(-c3ccccc3)nc2OCc2ccc(OCc3nc(-c4cccc(C(=O)O)c4)oc3C)c(OC)c2)co1 [Example 307]
66	CCc1nc(/C=C/c2cn(-c3ccccc3)nc2OCc2ccc(OCc3nc(-c4ccc(CC(=O)O)cc4)oc3C)c(OC)c2)cs1 [Example 337, {4-[4-({4-[({4-[(E)-2-(2-ethyl-1,3-thiazol-4-yl)ethenyl]-1-phenyl-1H-pyrazol-3-yl}oxy)methyl]-2-methoxyphenoxy}methyl)-5-methyl-1,3-oxazol-2-yl]phenyl}acetic acid]
46	CCn1cnc(/C=C/c2cn(-c3ccccc3)nc2OCc2ccc(OCc3nc(-c4ccc(CC(=O)O)cc4)oc3C)c(OC)c2)c1 [Example 344, (4-{4-[(4-[({4-[(E)-2-(1-ethyl-1H-imidazol-4-yl)ethenyl]-1-phenyl-1H-pyrazol-3-yl}oxy)methyl]-2-methoxyphenoxy)methyl]-5-methyl-1,3-oxazol-2-yl}phenyl)acetic acid]
150	COc1cc(COc2nn(-c3ccccc3)cc2/C=C/c2csc(C)n2)ccc1OCc1nc(-c2ccc(CC(=O)O)cc2)oc1C [Example 357, {4-[4-({2-methoxy-4-[({4-[(E)-2-(2-methyl-1,3-thiazol-4-yl)ethenyl]-1-phenyl-1H-pyrazol-3-yl}oxy)methyl]phenoxy}methyl)-5-methyl-1,3-oxazol-2-yl]phenyl}acetic acid]
38	COc1cc(COc2nn(-c3ccccc3)cc2/C=C/c2csc(C(C)C)n2)ccc1OCc1nc(-c2ccc(CC(=O)O)cc2)oc1C [Example 361, {4-[4-({4-[({4-[(E)-2-(2-isopropyl-1,3-thiazol-4-yl)ethenyl]-1-phenyl-1H-pyrazol-3-yl}oxy)methyl]-2-methoxyphenoxy}methyl)-5-methyl-1,3-oxazol-2-yl]phenyl}acetic acid]
83	CCc1nc(/C=C/c2cn(-c3ccccc3)nc2OCc2ccc(OCc3nc(-c4ccc(CC(=O)O)cc4)oc3C)c(OC)c2)co1 [Example 369, {4-[4-({4-[({4-[(E)-2-(2-ethyl-1,3-oxazol-4-yl)ethenyl]-1-phenyl-1H-pyrazol-3-yl}oxy)methyl]-2-methoxyphenoxy}methyl)-5-methyl-1,3-oxazol-2-yl]phenyl}acetic acid]
32	COc1cc(COc2nn(-c3ccccc3)cc2/C=C/c2coc(C(C)C)n2)ccc1OCc1nc(-c2ccc(CC(=O)O)cc2)oc1C [Example 370, {4-[4-({4-[({4-[(E)-2-(2-isopropyl-1,3-oxazol-4-yl)ethenyl]-1-phenyl-1H-pyrazol-3-yl}oxy)methyl]-2-methoxyphenoxy}methyl)-5-methyl-1,3-oxazol-2-yl]phenyl}acetic acid]

Compound	IC50 [nM]
CCOP(=O)(/C=C/c1cn(-c2ccccc2)nc1OCc1ccc(OCc2nc(/C=C/C(=O)O)oc2C)c(OC)c1)OCC [Example 315, (2E)-3-[4-({4-[({4-[(E)-2-(diethoxyphosphoryl)ethenyl]-1-phenyl-1H-pyrazol-3-yl}oxy)methyl]-2-methoxyphenoxy}methyl)-5-methyl-1,3-oxazol-2-yl]-2-propenoic acid]	500
CCOP(=O)(/C=C/c1cn(-c2ccccc2)nc1OCc1ccc(OCc2nc(-c3cccc(-c4nnn[nH]4)c3)oc2C)c(OC)c1)OCC [Example 336, {(E)-2-(3-{[3-methoxy-4-({5-methyl-2-[3-(1H-tetrazol-5-yl)phenyl]-1,3-oxazol-4-yl}methoxy)benzyl]oxy}-1-phenyl-1H-pyrazol-4-yl)ethenyl}phosphonate diethyl]	7.7
